Measured values: PMC4893617 (Scientific Reports, 2016)
Where a name gives a salt, the structure may show the parent alone.

Assays:
[1] = molecular target: T1, ChuaMOX (mandelonitrile oxidase) (Chamberlinius hualienensis, UniProt A0A173MZJ8); format: biochemical
T1 construct: native enzyme purified from millipede bodies without guts; ORF 593 residues incl; 17-residue signal peptide; predicted mature 62,818 Da; 67 kDa SDS-PAGE, 65 kDa gel filtration; monomeric, glycosylated, FAD

[2] = molecular target: T1, ChuaMOX (mandelonitrile oxidase); assay: biochemical; set-up: Oxidase activity of purified native ChuaMOX, ABTS read-out, pH 5, compound added at 1 mM; details: for remaining activity at 1000 µM: read-out: % of control remaining
Protocol: Enzymatic activity decreased in conditions approaching neutral pH, and it was lowest at a pH of 7 (Fig. 1c). After one hour of incubation at 25 °C, 80% of the ChuaMOX activity remained over a range of pH values between 3 and 10 (Fig. 1d). […] After one hour of incubation at pH 8, 80% of the activity remained between 25 °C and 50 °C, and all activity was lost at 70 °C (Fig. 1f). […] (Table 1). The enzyme required [compound left out] as a substrate rather than [compound left out] (see Supplementary Table S3). […] The chemicals (see Supplementary Table S5) were purchased from various suppliers (Sigma-Aldrich, Dojindo, Alfa Aesar, and Tokyo Chemical Industries) or synthesized as described below and used as test substrates, inhibitors, and metal salts. Nitriles were prepared from their corresponding aldehydes by way of bisulfite adducts according to Young et al.[23].

[3] = molecular target: T1, ChuaMOX (mandelonitrile oxidase); format: binding

T1 sequence (A0A173MZJ8 entry or part of it): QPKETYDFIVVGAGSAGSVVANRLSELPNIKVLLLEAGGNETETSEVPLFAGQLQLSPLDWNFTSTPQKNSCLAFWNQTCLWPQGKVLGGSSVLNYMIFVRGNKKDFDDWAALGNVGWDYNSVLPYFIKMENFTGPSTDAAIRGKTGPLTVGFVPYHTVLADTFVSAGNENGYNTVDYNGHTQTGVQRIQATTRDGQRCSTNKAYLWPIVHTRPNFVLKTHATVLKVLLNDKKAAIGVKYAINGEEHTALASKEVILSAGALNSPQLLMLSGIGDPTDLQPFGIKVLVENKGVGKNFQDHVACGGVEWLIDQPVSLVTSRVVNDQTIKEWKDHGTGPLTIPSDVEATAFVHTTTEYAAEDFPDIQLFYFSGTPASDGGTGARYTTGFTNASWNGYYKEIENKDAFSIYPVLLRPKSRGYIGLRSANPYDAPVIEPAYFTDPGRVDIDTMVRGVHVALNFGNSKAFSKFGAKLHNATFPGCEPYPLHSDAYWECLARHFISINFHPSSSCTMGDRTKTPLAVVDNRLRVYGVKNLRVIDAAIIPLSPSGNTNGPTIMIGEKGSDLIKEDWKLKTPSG

Structure (SMILES): N#CC(O)c1ccccc1 (racemic) [racemic mandelonitrile]
- Km [1]: 2100 µM

Structure (SMILES): C#CCN(C)Cc1ccccc1 [Pargyline]
- remaining activity at 1000 µM [2]: 100%

Structure (SMILES): NNC(N)=O [Semicarbazide hydrochloride]
- remaining activity at 1000 µM [2]: 92%

Structure (SMILES): NNC(=O)c1ccncc1 [Isoniazid]
- remaining activity at 1000 µM [2]: 88%

Structure (SMILES): CC(C)NNC(=O)c1ccncc1 [Iproniazid]
- remaining activity at 1000 µM [2]: 80%

Structure (SMILES): CCN1C(=O)C=CC1=O [N-Ethylmaleimide]
- remaining activity at 1000 µM [2]: 96.8%

Structure (SMILES): c1ccc(-c2ccccn2)nc1 [2,2'-Bipyridyl]
- remaining activity at 1000 µM [2]: 87.3%

Structure (SMILES): c1cnc2c(c1)ccc1cccnc12 [1,10-Phenanthroline]
- remaining activity at 1000 µM [2]: 84.1%

Structure (SMILES): Cc1cc2nc3c(=O)[nH]c(=O)nc-3n(C[C@H](O)[C@H](O)[C@H](O)COP(=O)(O)OP(=O)(O)OC[C@H]3O[C@@H](n4cnc5c(N)ncnc54)[C@H](O)[C@@H]3O)c2cc1C [flavin adenine dinucleotide]
- thin layer chromatography of the prosthetic group; UV-visible spectrum of purifi [3]: Thin layer chromatography (TLC) identified the prosthetic group as flavin adenine dinucleotide (FAD)

Structure (SMILES): Oc1cccc2cccnc12 [8-Hydroxyquinoline]
- % of control remaining ([2]; pH 5, standard assay, 1000 µM, inhibitor): 56.0%

Structure (SMILES): O=C(O)CI [Iodoacetic acid]
- remaining activity at 1000 µM [2]: 71.4%
